{"source": "patent US20160157483A1", "about": "“COMPOSITION FOR THE CLEANING AND PROTECTION OF TECHNICAL SURFACES” (aimecs GmbH, priority 2013, published 2016)", "key": {"[1]": {"tested_on": "Staphylococcus aureus", "assay": "S. aureus seeded onto agar plates, inhibition zone", "type": "cell-based", "details": "1 mg pure totarol or 10 mg microparticles loaded with about 1 mg totarol, 24 hours at 37° C.", "method": "In further experiments the S. aureus bacteria were seeded onto agar plates and treated with 1 mg of pure totarol, 10 mg of unloaded microparticles, and 10 mg of microparticles loaded with about 1 mg of totarol."}, "[2]": {"tested_on": "human cells", "details": "cited from earlier work"}, "[3]": {"tested_on": "Staphylococcus aureus", "assay": "Growth of S. aureus in suspension, optical density at 600 nm", "type": "cell-based", "details": "dissolved in ethyl acetate, 6 hours of incubation", "method": "The antibacterial effect on Staphylococcus aureus (S. aureus) of totarol and the microparticles loaded with totarol was tested in vitro in a further experiment. It was shown that a concentration of 0.1 mg/ml of totarol dissolved in ethyl acetate (EtAc) was sufficient to inhibit the growth of S. aureus in suspension after 6 hours of incubation."}, "[4]": {"tested_on": "Streptococcus gordonii", "assay": "Antibacterial effect against Streptococcus gordonii, growth by change of optical density", "type": "cell-based", "details": "5 mg in 6 well plates, 0 h vs 24 h, starting density 1.8; P/S 4%", "method": "The microparticles loaded with totarol were then tested for their antibacterial effect against Streptococcus gordonii (S.G.). For this purpose, 5 mg of totarol-loaded microparticles were given into 6 well plates and covered with a solution of S.G. For comparison, 5 mg of unloaded microparticles, 5 mg of free totarol, pure medium (Schaedler Medium of the company BD), medium with S.G. and medium with S.G. and 4% P/S (penicillin streptomycin) as positive control were measured. By means of the change of the optical density the growth of S.G. was determined. The starting density of S.G. was 1.8. In FIG. 3 the measured results at zero hour (left columns) and after 24 hours (right columns) is shown."}, "[5]": {"tested_on": "Staphylococcus aureus", "assay": "Soaked filter paper on agar plates with S. aureus, inhibition zone", "type": "cell-based", "details": "24 hours at 37° C., compared with EtAc control", "method": "The experiment was repeated with filter paper which was soaked with pure totarol, with microparticles loaded with totarol and with EtAc, and which was incubated on agar plates, onto which S. aureus was cultivated."}, "[6]": {"tested_on": "fresh human whole blood", "assay": "Hemocompatibility in whole blood according to ISO 10993-4", "type": "cell-based", "details": "1 hour", "method": "Finally in vitro tests were performed where totarol and microparticles loaded with totarol were brought into contact with whole blood. The effect on erythrozytes, platelets, leucozytes as well as the complement and coagulation cascade was examined.\nThe measurements were made according ISO 10993-4, in determining various markers with a central importance within the hemostatic system.\nShown are the means values and standard deviations (n=3).\nShown are the mean values and standard deviations (n=3)."}, "[7]": {"tested_on": "bacteria", "details": "in vitro; cited from earlier work"}, "[8]": {"tested_on": "multi-resistant Staphylococcus aureus (MRSA)", "details": "cited from earlier work"}}}
{"smiles": "CC(C)c1c(O)ccc2c1CC[C@H]1C(C)(C)CCC[C@]21C", "note": "[totarol, (4bS,8aS)-4b,8,8-Trimethyl-1-propan-2-yl-5,6,7,8a,9,10-hexahydrophenanthren-2-ol]", "values": [{"measurement": "inhibition zone on agar plates", "setting": "[1]", "value": "clear inhibition zone"}, {"measurement": "concentration at which toxic and inhibits the growth of human cells", "setting": "[2]", "value": "more than 5 μg/ml"}, {"measurement": "concentration sufficient to inhibit the growth of S. aureus in suspension", "setting": "[3]", "value": 0.1, "unit": "mg/mL"}, {"measurement": "reduction of the bacterial concentration (growth of S.G. by optical density)", "setting": "[4]", "value": "stronger reduction of the bacterial concentration than totarol-loaded microparticles"}, {"measurement": "inhibition zone around the filter paper", "setting": "[5]", "value": "clear inhibition zone"}, {"measurement": "effects on the hemostatic system", "setting": "[6]; 0.1 mg/ml totarol, 1 mg/ml totarol MP, vs control and unloaded microparticles", "value": "neither totarol nor the microparticles loaded with totarol have negative effects"}, {"measurement": "hemocompatibility", "setting": "[6]; blood contact", "value": "good hemocompatibility"}, {"measurement": "minimum concentration where totarol still has an antibacterial effect", "setting": "[7]", "value": 2, "unit": "µg/mL"}, {"measurement": "effectiveness against MRSA", "setting": "[8]", "value": "effective"}]}
